Source: patent US20250171417A1, “HETEROCYCLIC DERIVATIVE, AND COMPOSITION AND PHARMACEUTICAL USE THEREOF” (Xizang Haisco Pharmaceutical Co., Ltd., priority 2021, published 2025)

How the values were obtained:
[1] = test system: AR splice variants (AR-Vs); experiment: Degradation experiment on AR splice variants (AR-Vs) in 22RV1 cells; format: cell-based; conditions: 2 μM, 24 h
Description: (§1) Prostate cancer cells 22RV1 were purchased from ATCC, the cell medium was 1640+10% FBS, and the cells were cultured in an incubator at 37° C. under 5% CO2. On day 1, the cells in an exponential phase were collected. With a 1% css-FBS phenol red-free medium, the cell suspension was adjusted to a corresponding concentration and plated into a 6-well plate at 1 mL/well and 100000 cells/well. The next day, a 1% css-FBS phenol-free medium containing the compound to be tested was added, a 1% css-FBS phenol-free medium containing 0.2% DMSO was added to one well as DMSO vehicle control, and the 6-well plate was cultured in an incubator at 37° C. under 5% CO2. After 24 h, the cells were digested with pancreatin and collected into a 1.5 mL centrifuge tube. […] The supernatant protein samples were collected, and protein quantification was performed by a BCA method. AR-FL and AR-Vs were detected using fully automatic protein expression quantitative analysis, which involved diluting the protein to be tested to 1 mg/mL, 4 μL of the diluted protein samples were added to 1 μL of […] (provided in the kit), and the prepared samples were denatured at 95° C. for 5 min and placed on ice for use. […] The prepared reagents were successively added to an assay plate according to instructions of the kit and detected on an instrument. […]

Full-length AR (AR-FL) = experiment: Degradation experiment on full-length AR (AR-FL) in 22RV1 cells; format: cell-based; conditions: 2 μM, 24 h
Description: as §1

[2] = Pharmacokinetic test in rats; format: in vivo; conditions: rat, plasma, po, male SD rats
Description: Test objective: In this experiment, a single dose of each test compound was administered to SD rats intravenously and intragastrically, and the concentrations of the test compounds in plasma of rats were measured to evaluate the pharmacokinetic characteristics of the test compounds in rats.
Experimental animals: male SD rats, 200-250 g, 6-8 weeks old, 6 rats/compound, purchased from Chengdu Ddossy Experimental Animals Co., Ltd.
Experimental method: on the day of the test, 6 SD rats were randomly grouped according to their body weight; the animals were fasted with water available for 12 to 14 hours one day before the administration of a test compound, and were fed 4 hours after the administration.
Sampling: Before and after the administration, 0.1 mL of blood samples were drawn from the orbits of the animals under isoflurane anesthesia, and placed in an EDTAK2 centrifuge tube. Centrifugation was carried out at 5000 rpm at 4° C. for 10 min, and the plasma was collected.
Time points for plasma collection in IV&PO group: 0, 5 min, 15 min, 30 min, 1 h, 2 h, 4 h, 6 h, 8 h, and 24 h.
Before analysis and detection, all samples were stored at −60° C. The samples were analyzed quantitatively by LC-MS/MS.

What does the source list for CC(C)(C(=O)Nc1cnc(C#N)c(C(F)(F)F)c1)n1cc(C#CC2CN(c3ccc4c(c3)C(=O)N(C3CCC(=O)NC3=O)C4=O)C2)cn1 (stereo not shown) [Compound 4, N-(6-cyano-5-(trifluoromethyl)pyridin-3-yl)-2-(4-((1-(2-(2,6-dioxopiperidin-3-yl)-1,3-dioxoisoindolin-5-yl)azetidin-3-yl)ethynyl)-1H-pyrazol-1-yl)-2-methylpropanamide]?
degradation effect on AR-Vs [1]: significant degradation effect; degradation effect on AR-FL (Full-length AR (AR-FL)): significant degradation effect; bioavailability ([2]; i.g. 5 mg/kg vs intravenous 2 mg/kg): 51.2 ± 9.7%; AUC(0-t) ([2]; i.g. 5 mg/kg): 29.4 ± 5.59 µg·h/mL
